Measured values: patent US4496578A, “Antihypertensive sulfur-containing compounds” (Santen Pharmaceutical Co., Ltd., priority 1978, dated 1985)

Columns and labels:
[1] = tested on: angiotensin I-converting enzyme; assay: Percent inhibition of pressor response to angiotensin I in unanesthetized rats after oral administration (ACE inhibition in vivo); design: species or system Male Wistar strain rats
Protocol: As recently it has been clear that the compounds inhibiting angiotensin I-converting enzyme may be the curative potency against both renal hypertension and essential hypertension, the compounds of this invention are evaluated as antihypertensive agents by the following method.
Male Wistar strain rats weighing 200-300 g were used. Under ether anesthesia, polyethylene cannulae are inserted into carotid artery and jugular vein. The cannula to carotid artery is connected to an electric transducer, while the cannula to jugular vein is connected to an apparatus for continuous infusion. After the complete recovery from anesthesia, angiotensin I is infused intravenously in a dose of 300 ng/kg by the apparatus for continuous infusion, and the pressor response is recorded by polygraph (Nihon Koden, RM-150). The compounds of this invention suspended in 0.5% tragacanth solution are addministered orally in a dose of 0.3 ml per 100 g of body weight, and the pressor response to angiotensin I infused intravenously is measured with time.

[2] = tested on: male ddy-std. strain mice; assay: Acute toxicity test in mice; format: in vivo; conditions: intraperitoneal, suspended in 0.5% tragacanth
Protocol: The male ddy-std. strain mice (4 weeks of age, weighing 19-21 g) were placed in a breeding room of constant temperature and humidity (23±1° C., 55±5%) and fed freely pellet diet (CE-2, Clea Japan, Inc.) and water ad. libitum for a week. The mice showing the normal growth were selected for the experiment.
Test compound is suspended in 0.5% tragacanth solution, and administered intraperitoneally in a dose of 0.5 ml per 20 g B.W.

[3] = 5 min after oral dose, mg/kg: 2 1.8, 2A 1.3, 2B 1.8, 22 1.5, 22A 1.0, 22B 1.4, 32 1.7, 32C 1.3, 64 1.9
[4] = 15 min after oral dose, mg/kg: 2 1.8, 2A 1.3, 2B 1.8, 22 1.5, 22A 1.0, 22B 1.4, 32 1.7, 32C 1.3, 64 1.9
[5] = 25 min after oral dose, mg/kg: 2 1.8, 2A 1.3, 2B 1.8, 22 1.5, 22A 1.0, 22B 1.4, 32 1.7, 32C 1.3, 64 1.9
[6] = 35 min after oral dose, mg/kg: 2 1.8, 2A 1.3, 2B 1.8, 22 1.5, 22A 1.0, 22B 1.4, 32 1.7, 32C 1.3, 64 1.9
[7] = 45 min after oral dose, mg/kg: 2 1.8, 2A 1.3, 2B 1.8, 22 1.5, 22A 1.0, 22B 1.4, 32 1.7, 32C 1.3, 64 1.9
[8] = 55 min after oral dose, mg/kg: 2 1.8, 2A 1.3, 2B 1.8, 22 1.5, 22A 1.0, 22B 1.4, 32 1.7, 32C 1.3, 64 1.9
[9] = 65 min after oral dose, mg/kg: 2 1.8, 2A 1.3, 2B 1.8, 22 1.5, 22A 1.0, 22B 1.4, 32 1.7, 32C 1.3, 64 1.9
[10] = 75 min after oral dose, mg/kg: 2 1.8, 2A 1.3, 2B 1.8, 22 1.5, 22A 1.0, 22B 1.4, 32 1.7, 32C 1.3, 64 1.9
[11] = 85 min after oral dose, mg/kg: 2 1.8, 2A 1.3, 2B 1.8, 22 1.5, 22A 1.0, 22B 1.4, 32 1.7, 32C 1.3, 64 1.9
[12] = 95 min after oral dose, mg/kg: 2 1.8, 2A 1.3, 2B 1.8, 22 1.5, 22A 1.0, 22B 1.4, 32 1.7, 32C 1.3, 64 1.9
[13] = 105 min after oral dose, mg/kg: 2 1.8, 2A 1.3, 2B 1.8, 22 1.5, 22A 1.0, 22B 1.4, 32 1.7, 32C 1.3, 64 1.9
[14] = 115 min after oral dose, mg/kg: 2 1.8, 2A 1.3, 2B 1.8, 22 1.5, 22A 1.0, 22B 1.4, 32 no value, 32C 1.3, 64 1.9

SMILES	Inhibition (%) of pressor response to angiotensin I [1, 3] [%]	Inhibition (%) of pressor response to angiotensin I [1, 4] [%]	Inhibition (%) of pressor response to angiotensin I [1, 5] [%]	Inhibition (%) of pressor response to angiotensin I [1, 6] [%]	Inhibition (%) of pressor response to angiotensin I [1, 7] [%]	Inhibition (%) of pressor response to angiotensin I [1, 8] [%]	Inhibition (%) of pressor response to angiotensin I [1, 9] [%]	Inhibition (%) of pressor response to angiotensin I [1, 10] [%]	Inhibition (%) of pressor response to angiotensin I [1, 11] [%]	Inhibition (%) of pressor response to angiotensin I [1, 12] [%]	Inhibition (%) of pressor response to angiotensin I [1, 13] [%]	Inhibition (%) of pressor response to angiotensin I [1, 14] [%]	acute toxicity, LD [2] [mg/kg]
C[C@H](CSC(=O)c1ccccc1)C(=O)N1C(C(=O)O)CCC1c1ccccc1O (stereo partly drawn) [Compound 2B]	7.9	36.8	36.8	36.8	45.7	31.6	31.6	31.6	21.1	21.1	15.8	15.8	
Cc1ccc(C(=O)SC[C@@H](C)C(=O)N2CSC[C@H]2C(=O)O)cc1 [Compound 22]	45.2	60.4	51.4	59.0	55.0	50.8	55.0	53.5	49.4	46.5	39.8	31.6	
C[C@H](CSC(=O)c1ccccc1)C(=O)N1CSC[C@H]1C(=O)O [Compound 22B, (4R)-3-[(2S)-S-benzoyl-3-mercapto-2-methylpropanoyl]-4-thiazoldinecarboxylic acid]	45.4	60.7	60.6	45.4	45.4	45.4	42.4	36.4	30.3	21.2	21.2	21.2	
Cc1ccc(C(=O)SC[C@@H](C)C(=O)N2C(C(=O)O)CCC2c2ccccc2O)cc1 (stereo partly drawn) [Compound 2]	39.3	58.1	64.0	60.0	73.0	57.2	55.0	54.5	42.0	39.5	42.0	37.0	
C[C@H](CSC(=O)c1ccccc1)C(=O)N1CSC[C@H]1C(=O)OCOC(=O)C(C)(C)C [Compound 64, (2,2-Dimethyl-1-oxopropoxy)methyl (4R)-3-[(2S)-S-benzoyl-3-mercapto-2-methylpropanoyl]-4-thiazolidinecarboxylate]	30.0	59.5	69.5	59.9	55.7	53.5	47.1	37.2	36.5	30.8	27.8	24.5	
C[C@H](CS)C(=O)N1CSC[C@H]1C(=O)O [Compound 22A, (4R)-3-[(2S)-3-mercapto-2-methylpropanoyl]-4-thiazolidinecarboxylic acid]	34.0	51.5	49.7	45.0	37.5	30.2	30.2	30.2	28.0	19.8	10.2	8.0	
C[C@H](CS)C(=O)N1C(C(=O)O)CCC1c1ccccc1O (stereo partly drawn) [Compound 2A]	20.0	40.0	37.5	36.5	33.7	30.0	28.2	20.0	30.0	24.8	21.0	20.0	
O=C(O)[C@@H]1CSC(c2ccccc2O)N1C(=O)CCS (stereo partly drawn) [Compound 32C]	53.3	62.9	64.7	63.7	54.0	49.3	47.7	38.8	34.0	30.0	30.0	31.0	
CC(=O)Oc1ccccc1C1SC[C@@H](C(=O)O)N1C(=O)CCSC(C)=O (stereo partly drawn) [Compound 32, (4R)-2-(2-Acetoxyphenyl)-3-(S-acetyl-3-mercaptopropanoyl)-4-thiazolidinecarboxylic acid]	40.2	55.3	70.2	70.2	61.1	54.2	55.3	57.2	48.2	43.4	27.3		> 500
